Results published in article PMC5218480 (PLoS ONE, 2017).

System: MV-4-11 cells
Assay: Gene expression microarray analysis (Affymetrix PrimeView) and GSEA
Format: cell-based, human
Design: RFU PODN (11730768_x_at) / Fold change /veh PODN (11730768_x_at) / RFU LINC00158 (11744669_a_at) / Fold change /veh LINC00158 (11744669_a_at) / RFU DUSP10 (11751237_a_at) / Fold change /veh DUSP10 (11751237_a_at) / RFU ID3 (11757404_x_at) / Fold change /veh ID3 (11757404_x_at) / RFU PLEKHG5 (11737974_s_at) / Fold change /veh PLEKHG5 (11737974_s_at) / RFU LRRC4B (11730491_at) / Fold change /veh LRRC4B (11730491_at) / RFU GIMAP4 (11747438_a_at) / Fold change /veh GIMAP4 (11747438_a_at) / RFU KRT8 (11758183_x_at) / Fold change /veh KRT8 (11758183_x_at) / RFU CNN1 (11734310_a_at) / Fold change /veh CNN1 (11734310_a_at) / RFU VPS37D (11726825_at) / Fold change /veh VPS37D (11726825_at) / RFU C10orf10 (11716522_x_at) / Fold change /veh C10orf10 (11716522_x_at) / RFU KIR2DL2 /// KIR2DL4 /// KIR2DL5A /// KIR2DL5B /// KIR2DS1 /// KIR2DS2 /// KIR2DS3 /// KIR2DS4 /// KIR3DL3 /// KIR3DL3 /// KIR3DS1 (11738374_at) / Fold change /veh KIR2DL2 /// KIR2DL4 /// KIR2DL5A /// KIR2DL5B /// KIR2DS1 /// KIR2DS2 /// KIR2DS3 /// KIR2DS4 /// KIR3DL3 /// KIR3DL3 /// KIR3DS1 (11738374_at) / RFU C1QL1 (11718748_at) / Fold change /veh C1QL1 (11718748_at) / RFU TMPRSS4 (11747572_a_at) / Fold change /veh TMPRSS4 (11747572_a_at) / RFU HAMP (11756126_x_at) / Fold change /veh HAMP (11756126_x_at) / RFU RNFT2 (11725882_a_at) / Fold change /veh RNFT2 (11725882_a_at) / RFU NR4A2 (11747474_a_at) / Fold change /veh NR4A2 (11747474_a_at) / RFU ABCC12 (11746883_a_at) / Fold change /veh ABCC12 (11746883_a_at) / RFU TMEM136 (11760407_x_at) / Fold change /veh TMEM136 (11760407_x_at) / RFU CLDN22 /// WWC2 (11732394_at) / Fold change /veh CLDN22 /// WWC2 (11732394_at) / RFU HLA-DPB1 (11760878_x_at) / Fold change /veh HLA-DPB1 (11760878_x_at) / RFU SPINT1 (11716480_a_at) / Fold change /veh SPINT1 (11716480_a_at) / RFU GAP43 (11754022_s_at) / Fold change /veh GAP43 (11754022_s_at) / RFU A4GNT (11735810_at) / Fold change /veh A4GNT (11735810_at) / RFU PRB3 (11715151_x_at) / Fold change /veh PRB3 (11715151_x_at) / RFU TUBB4B (11761932_at) / Fold change /veh TUBB4B (11761932_at) / RFU CAPN14 (11732068_a_at) / Fold change /veh CAPN14 (11732068_a_at) / RFU TMCC2 (11721928_a_at) / Fold change /veh TMCC2 (11721928_a_at) / RFU IRGQ (11745062_a_at) / Fold change /veh IRGQ (11745062_a_at) / RFU FAM174B (11720279_a_at) / Fold change /veh FAM174B (11720279_a_at) / RFU TMPRSS4 (11748680_a_at) / Fold change /veh TMPRSS4 (11748680_a_at) / RFU FAM212B (11763350_a_at) / Fold change /veh FAM212B (11763350_a_at) / RFU PLEKHG5 (11743358_a_at) / Fold change /veh PLEKHG5 (11743358_a_at) / RFU ZSCAN30 (11745921_a_at) / Fold change /veh ZSCAN30 (11745921_a_at) / RFU CMKLR1 (11741424_a_at) / Fold change /veh CMKLR1 (11741424_a_at) / RFU LOC101060620 /// MAPK8IP1 (11723275_at) / Fold change /veh LOC101060620 /// MAPK8IP1 (11723275_at) / RFU SPTSSB (11747773_x_at) / Fold change /veh SPTSSB (11747773_x_at) / RFU PRSS12 (11739890_at) / Fold change /veh PRSS12 (11739890_at) / RFU BIN1 (11741810_x_at) / Fold change /veh BIN1 (11741810_x_at) / RFU WNT11 (11732464_a_at) / Fold change /veh WNT11 (11732464_a_at) / RFU C10orf10 (11716521_a_at) / Fold change /veh C10orf10 (11716521_a_at) / RFU C5orf56 (11738089_at) / Fold change /veh C5orf56 (11738089_at) / RFU CYB561 (11721691_x_at) / Fold change /veh CYB561 (11721691_x_at) / RFU ANKRD19P (11752326_a_at) / Fold change /veh ANKRD19P (11752326_a_at) / RFU OR2T12 /// OR2T33 /// OR2T8 (11738714_s_at) / Fold change /veh OR2T12 /// OR2T33 /// OR2T8 (11738714_s_at) / RFU VCAN (11748164_a_at) / Fold change /veh VCAN (11748164_a_at) / RFU JSRP1 (11732532_at) / Fold change /veh JSRP1 (11732532_at) / RFU KRTAP10-11 (11738290_x_at) / Fold change /veh KRTAP10-11 (11738290_x_at) / RFU MYO3A (11730013_a_at) / Fold change /veh MYO3A (11730013_a_at) / RFU EBF3 (11725865_a_at) / Fold change /veh EBF3 (11725865_a_at) / RFU CAMK2N1 (11719241_x_at) / Fold change /veh CAMK2N1 (11719241_x_at) / RFU C5orf56 (11738088_a_at) / Fold change /veh C5orf56 (11738088_a_at) / RFU OLFML3 (11715873_a_at) / Fold change /veh OLFML3 (11715873_a_at) / RFU LOC100653217 /// NTM (11731650_a_at) / Fold change /veh LOC100653217 /// NTM (11731650_a_at) / RFU MAPK11 (11762145_a_at) / Fold change /veh MAPK11 (11762145_a_at) / RFU FIZ1 (11724087_x_at) / Fold change /veh FIZ1 (11724087_x_at) / RFU OASL (11726364_x_at) / Fold change /veh OASL (11726364_x_at) / RFU SOX15 (11748057_x_at) / Fold change /veh SOX15 (11748057_x_at) / RFU CD79A (11719716_a_at) / Fold change /veh CD79A (11719716_a_at) / RFU HIST1H1D (11736915_at) / Fold change /veh HIST1H1D (11736915_at) / RFU CASKIN2 (11723855_a_at) / Fold change /veh CASKIN2 (11723855_a_at) / RFU LOC730098 (11760151_x_at) / Fold change /veh LOC730098 (11760151_x_at) / RFU OR4N2 (11742367_at) / Fold change /veh OR4N2 (11742367_at) / RFU PRRT2 (11749266_a_at) / Fold change /veh PRRT2 (11749266_a_at) / RFU SNX32 (11753110_a_at) / Fold change /veh SNX32 (11753110_a_at) / RFU CDHR5 (11726645_a_at) / Fold change /veh CDHR5 (11726645_a_at) / RFU RCAN1 (11760418_a_at) / Fold change /veh RCAN1 (11760418_a_at) / RFU FAM167A (11723789_a_at) / Fold change /veh FAM167A (11723789_a_at) / RFU FAM26E (11764081_at) / Fold change /veh FAM26E (11764081_at) / RFU ISYNA1 (11749810_s_at) / Fold change /veh ISYNA1 (11749810_s_at) / RFU ACY1 (11761880_at) / Fold change /veh ACY1 (11761880_at) / RFU 11764098_at / Fold change /veh 11764098_at / RFU SAMD14 (11745864_x_at) / Fold change /veh SAMD14 (11745864_x_at) / RFU NPB (11741838_a_at) / Fold change /veh NPB (11741838_a_at) / RFU TMPRSS6 (11731388_a_at) / Fold change /veh TMPRSS6 (11731388_a_at) / RFU KRTAP10-2 (11738614_at) / Fold change /veh KRTAP10-2 (11738614_at) / RFU ARHGAP8 /// PRR5-ARHGAP8 (11727945_x_at) / Fold change /veh ARHGAP8 /// PRR5-ARHGAP8 (11727945_x_at) / RFU KRTAP5-7 /// NADSYN1 (11734609_at) / Fold change /veh KRTAP5-7 /// NADSYN1 (11734609_at) / RFU RASL12 (11751679_a_at) / Fold change /veh RASL12 (11751679_a_at) / RFU CDKN2B (11736163_a_at) / Fold change /veh CDKN2B (11736163_a_at) / RFU PRF1 (11729649_at) / Fold change /veh PRF1 (11729649_at) / RFU, ZNF638 /// ZNF638-IT1 / Fold change vs veh, ZNF638 /// ZNF638-IT1 / RFU, PANK3 / Fold change vs veh, PANK3 / RFU, SH3YL1 / Fold change vs veh, SH3YL1 / RFU, ZEB2 / Fold change vs veh, ZEB2 / RFU, NRIP1 / Fold change vs veh, NRIP1 / RFU, PTTG1IP / Fold change vs veh, PTTG1IP / RFU, CAPN2 / Fold change vs veh, CAPN2 / RFU, MED14 / Fold change vs veh, MED14 / RFU, SNORA58 / Fold change vs veh, SNORA58 / RFU, C1orf63 / Fold change vs veh, C1orf63 / RFU, LRRFIP1 / Fold change vs veh, LRRFIP1 / RFU, NDUFAF7 / Fold change vs veh, NDUFAF7 / RFU, SLC12A2 / Fold change vs veh, SLC12A2 / RFU, IBTK / Fold change vs veh, IBTK / RFU, ESF1 / Fold change vs veh, ESF1 / Fold change vs veh, TMEM50B / RFU, TAOK1 / Fold change vs veh, TAOK1 / RFU, ACBD3 / Fold change vs veh, ACBD3 / RFU, TMA16 / Fold change vs veh, TMA16 / RFU, RWDD3 / Fold change vs veh, RWDD3 / RFU, BCAT1 / Fold change vs veh, BCAT1 / RFU, EDEM3 / Fold change vs veh, EDEM3 / RFU, TMEM33 / Fold change vs veh, TMEM33 / RFU, WDR75 / Fold change vs veh, WDR75 / RFU, AHCTF1 / Fold change vs veh, AHCTF1 / RFU, TFRC / Fold change vs veh, TFRC / RFU, ZDHHC17 / Fold change vs veh, ZDHHC17 / RFU, NOM1 / Fold change vs veh, NOM1 / RFU, ARL8B / Fold change vs veh, ARL8B / RFU, ZBTB11 / Fold change vs veh, ZBTB11 / RFU, TAMM41 / Fold change vs veh, TAMM41 / RFU, KIAA1704 /// LOC100996395 / Fold change vs veh, KIAA1704 /// LOC100996395 / RFU, ING1 / Fold change vs veh, ING1 / RFU, TRMT61B / Fold change vs veh, TRMT61B / RFU, FUBP3 / Fold change vs veh, FUBP3 / RFU, TP53 / Fold change vs veh, TP53 / RFU, TNKS2 / Fold change vs veh, TNKS2 / RFU, ZFP14 / Fold change vs veh, ZFP14 / RFU, ACTR2 / Fold change vs veh, ACTR2 / RFU, PPP3R1 / Fold change vs veh, PPP3R1 / RFU, PIK3R1 / Fold change vs veh, PIK3R1 / RFU, HNRNPA1 / Fold change vs veh, HNRNPA1 / RFU, RNF170 / Fold change vs veh, RNF170 / RFU, ZNF28 / Fold change vs veh, ZNF28 / RFU, RNGTT / Fold change vs veh, RNGTT / RFU, OGT / Fold change vs veh, OGT / RFU, BRD1 / Fold change vs veh, BRD1 / RFU, MARS / Fold change vs veh, MARS / RFU, ZNF655 / Fold change vs veh, ZNF655 / RFU, FAHD1 / Fold change vs veh, FAHD1 / RFU, BDP1 / Fold change vs veh, BDP1 / RFU, LRRCC1 / Fold change vs veh, LRRCC1 / RFU, ARID1A / Fold change vs veh, ARID1A / RFU, ZNF146 / Fold change vs veh, ZNF146 / RFU, ZNF330 / Fold change vs veh, ZNF330 / RFU, GPN3 / Fold change vs veh, GPN3 / RFU, C9orf123 / Fold change vs veh, C9orf123 / RFU, N4BP2L2 / Fold change vs veh, N4BP2L2 / RFU, ARFIP1 / Fold change vs veh, ARFIP1 / RFU, FAM179B / Fold change vs veh, FAM179B / RFU, BCL10 / Fold change vs veh, BCL10 / RFU, UHRF1BP1L / Fold change vs veh, UHRF1BP1L / RFU, BET1 / Fold change vs veh, BET1 / RFU, CNOT2 / Fold change vs veh, CNOT2 / RFU, ZNF268 / Fold change vs veh, ZNF268 / Fold change vs veh, ZNF507 / RFU, DGCR2 / Fold change vs veh, DGCR2 / RFU, WDSUB1 / Fold change vs veh, WDSUB1 / Fold change vs veh, HSP90B1 /// MIR3652 / RFU, ADSS / Fold change vs veh, ADSS / RFU, GK / Fold change vs veh, GK / RFU, ZNF148 / Fold change vs veh, ZNF148 / RFU, TAF9 / Fold change vs veh, TAF9 / RFU, SLC1A5 / Fold change vs veh, SLC1A5 / RFU, SLMO2 / Fold change vs veh, SLMO2 / RFU, ABCC4 / Fold change vs veh, ABCC4 / RFU, LOC101060439 /// RAP1B / Fold change vs veh, LOC101060439 /// RAP1B / RFU, RFX7 / Fold change vs veh, RFX7 / RFU, GTPBP10 / Fold change vs veh, GTPBP10 / RFU, CNEP1R1 / Fold change vs veh, CNEP1R1 / RFU, BIVM-ERCC5 /// ERCC5 / Fold change vs veh, BIVM-ERCC5 /// ERCC5 / RFU, ILF3 / Fold change vs veh, ILF3 / RFU 11762660_at / Fold change /veh 11762660_at / RFU VCAN (11757783_s_at) / Fold change /veh VCAN (11757783_s_at) / RFU DDX43 (11728927_at) / Fold change /veh DDX43 (11728927_at) / RFU KRT8 (11758188_x_at) / Fold change /veh KRT8 (11758188_x_at) / RFU NKD1 (11759106_at) / Fold change /veh NKD1 (11759106_at) / RFU SRD5A1 (11742802_a_at) / Fold change /veh SRD5A1 (11742802_a_at) / RFU TPSAB1 /// TPSB2 (11721975_s_at) / Fold change /veh TPSAB1 /// TPSB2 (11721975_s_at) / RFU GSTM3 (11746129_a_at) / Fold change /veh GSTM3 (11746129_a_at) / RFU IL23R (11737362_x_at) / Fold change /veh IL23R (11737362_x_at) / RFU TMEM51 (11727254_a_at) / Fold change /veh TMEM51 (11727254_a_at) / RFU PIWIL2 (11732686_x_at) / Fold change /veh PIWIL2 (11732686_x_at) / RFU ORM1 (11744905_x_at) / Fold change /veh ORM1 (11744905_x_at) / RFU CCDC152 (11743942_at) / Fold change /veh CCDC152 (11743942_at) / RFU ECM1 (11717891_a_at) / Fold change /veh ECM1 (11717891_a_at) / RFU IL23R (11748794_a_at) / Fold change /veh IL23R (11748794_a_at) / RFU TNFAIP8L3 (11732012_x_at) / Fold change /veh TNFAIP8L3 (11732012_x_at) / RFU MBOAT4 (11741988_at) / Fold change /veh MBOAT4 (11741988_at) / RFU 11764193_at / Fold change /veh 11764193_at / RFU TMEM53 (11763286_at) / Fold change /veh TMEM53 (11763286_at) / RFU MAGEB2 (11727129_at) / Fold change /veh MAGEB2 (11727129_at) / RFU TMEM200A (11744735_a_at) / Fold change /veh TMEM200A (11744735_a_at) / RFU CCDC152 (11751479_a_at) / Fold change /veh CCDC152 (11751479_a_at) / RFU FAM211A (11726209_a_at) / Fold change /veh FAM211A (11726209_a_at) / RFU RGS16 (11746705_a_at) / Fold change /veh RGS16 (11746705_a_at) / RFU VCAN (11755009_s_at) / Fold change /veh VCAN (11755009_s_at) / RFU RHOB (11743442_s_at) / Fold change /veh RHOB (11743442_s_at) / RFU RGS16 (11720943_a_at) / Fold change /veh RGS16 (11720943_a_at) / RFU RGS16 (11720944_at) / Fold change /veh RGS16 (11720944_at) / RFU, VPS4B / Fold change vs veh, VPS4B / RFU, CREB1 / Fold change vs veh, CREB1 / RFU, DNAJC13 / Fold change vs veh, DNAJC13 / RFU, GNAQ / Fold change vs veh, GNAQ / RFU, CDK5R1 / Fold change vs veh, CDK5R1 / RFU, ZRANB3 / Fold change vs veh, ZRANB3 / RFU, CUL4A / Fold change vs veh, CUL4A / RFU, CCNY / Fold change vs veh, CCNY / RFU, UFL1 / Fold change vs veh, UFL1 / RFU, COG3 / Fold change vs veh, COG3 / RFU, DIAPH2 / Fold change vs veh, DIAPH2 / RFU, SKA2 / Fold change vs veh, SKA2 / RFU, AFF3 / Fold change vs veh, AFF3 / RFU, LMF1 / Fold change vs veh, LMF1 / RFU, IPO11 / Fold change vs veh, IPO11 / RFU, DFFB / Fold change vs veh, DFFB / RFU, FOXP1 / Fold change vs veh, FOXP1 / RFU, CARD8 / Fold change vs veh, CARD8 / RFU, STRN3 / Fold change vs veh, STRN3 / RFU, ADK / Fold change vs veh, ADK / RFU, RASSF2 / Fold change vs veh, RASSF2 / RFU, WIPF1 / Fold change vs veh, WIPF1 / RFU, LARP1B / Fold change vs veh, LARP1B / RFU, RASA1 / Fold change vs veh, RASA1 / RFU, RB1 / Fold change vs veh, RB1 / RFU, PPFIA1 / Fold change vs veh, PPFIA1 / RFU, MAT2A / Fold change vs veh, MAT2A / RFU, CCT5 / Fold change vs veh, CCT5 / RFU, WDR92 / Fold change vs veh, WDR92 / RFU, CUX1 / Fold change vs veh, CUX1 / RFU, TTC7A / Fold change vs veh, TTC7A / RFU, TMEM135 / Fold change vs veh, TMEM135 / RFU, DEPTOR / Fold change vs veh, DEPTOR / RFU, CPM / Fold change vs veh, CPM / RFU, DNAJB6 / Fold change vs veh, DNAJB6 / RFU, CACNA2D3 / Fold change vs veh, CACNA2D3 / RFU, DTX4 / Fold change vs veh, DTX4 / RFU, TFCP2 / Fold change vs veh, TFCP2 / RFU, GMCL1 /// GMCL1P1 / Fold change vs veh, GMCL1 /// GMCL1P1 / RFU, AEBP2 / Fold change vs veh, AEBP2 / RFU, SNHG1 /// SNORD22 /// SNORD25 /// SNORD26 /// SNORD27 /// SNORD28 /// SNORD29 /// SNORD31 / Fold change vs veh, SNHG1 /// SNORD22 /// SNORD25 /// SNORD26 /// SNORD27 /// SNORD28 /// SNORD29 /// SNORD31 / Fold change (Aza/veh), C12orf56 (ProbeSet 11735607_a_at) / Fold change (ACY-1035/veh), C12orf56 (ProbeSet 11735607_a_at) / Fold change (Aza/veh), FGFR1OP (ProbeSet 11751329_s_at) / Fold change (ACY-1035/veh), FGFR1OP (ProbeSet 11751329_s_at) / Fold change (Aza/veh), VPS36 (ProbeSet 11739960_a_at) / Fold change (ACY-1035/veh), VPS36 (ProbeSet 11739960_a_at) / RFU SYPL1 (11715823_x_at) / Fold change /veh SYPL1 (11715823_x_at) / RFU IGFBP7 (11715501_s_at) / Fold change /veh IGFBP7 (11715501_s_at) / RFU REEP3 (11722064_at) / Fold change /veh REEP3 (11722064_at) / RFU IGLL1 (11728026_x_at) / Fold change /veh IGLL1 (11728026_x_at): dose or concentration left out as unconfirmed
Conditions: ProbeSet 11729384_s_at; LIST D

For `Nc1ncn([C@@H]2O[C@H](CO)[C@@H](O)[C@H]2O)c(=O)n1` [azacitidine], which “Fold change vs veh, CCNY” value is on record?
The value was 0.82.
